Experimental data from ChEMBL document CHEMBL1145738, “Peptidyl aldehyde inhibitors of calpain incorporating P2-proline mimetics” (Bioorg Med Chem Lett, 2003).
Non-standard residues stand in square brackets, D forms with d. Residues, ends and D or L forms follow the SMILES beside them. ξ: configuration not given here. *: point of attachment. Tos = Cc1ccc(S(=O)(=O)*)cc1; ξF = NC(Cc1ccccc1)C(=O)O; Pip = O=C(O)[CH]1CCCCN1; Aze = O=C(O)[CH]1CCN1

What was measured:
Calpain small subunit 1 [1] = biological target: T1, Calpain small subunit 1 (Sus scrofa, UniProt P04574); assay: Compound tested for inhibition of porcine Calpain 1
T1 sequence (P04574 whole entry): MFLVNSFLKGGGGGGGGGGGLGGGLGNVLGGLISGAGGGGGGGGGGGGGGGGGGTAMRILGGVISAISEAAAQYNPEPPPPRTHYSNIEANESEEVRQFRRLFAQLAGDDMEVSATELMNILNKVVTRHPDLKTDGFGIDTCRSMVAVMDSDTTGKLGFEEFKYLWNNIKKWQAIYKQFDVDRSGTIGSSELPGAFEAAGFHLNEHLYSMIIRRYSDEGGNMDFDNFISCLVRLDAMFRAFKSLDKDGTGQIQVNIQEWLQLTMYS

Calpain small subunit 1 [2] = biological target: T1, Calpain small subunit 1; assay: Compound tested for inhibition of porcine calpain I
Cathepsin B [3] = biological target: T2, Cathepsin B (Homo sapiens, UniProt P07858); assay: Compound tested for inhibition of human liver cathepsin B
Cathepsin B [4] = biological target: T2, Cathepsin B; assay: (§1) Selectivity ratio of cathepsin B to calpain I
Cathepsin B [5] = biological target: T2, Cathepsin B; assay: Compound tested for inhibition of human liver Cathepsin B
[6] = as §1

SMILES | Ki (Calpain small subunit 1 [1]) [nM] | Ki (Calpain small subunit 1 [2]) [nM] | Ki (Cathepsin B [3]) [nM] | Selectivity ratio (Cathepsin B [4]) | Ki (Cathepsin B [5]) [nM] | Selectivity ratio [6]
Cc1ccc(S(=O)(=O)N2CCSC2C(=O)NC(C=O)Cc2ccccc2)cc1 (stereo not drawn) | 70 |  |  |  |  | 
Cc1ccc(S(=O)(=O)N[C@@H](CC(C)C)C(=O)NC(C=O)Cc2ccccc2)cc1 (stereo partly drawn) (Tos-Leu-[ξF]-aldehyde) |  | 20 | 70 | 4 |  | 
Cc1ccc(S(=O)(=O)N2CCCC2C(=O)NC(C=O)Cc2ccccc2)cc1 (stereo not drawn) (Tos-Pro-Phe-aldehyde; configuration not given here) | 80 |  |  |  | 12100 | 151
Cc1ccc(S(=O)(=O)N2CCC2C(=O)NC(C=O)Cc2ccccc2)cc1 (stereo not drawn) (Tos-[Aze]-Phe-aldehyde; configuration not given here) | 250 |  |  |  | 2750 | 11
Cc1ccc(S(=O)(=O)N2CCCCC2C(=O)NC(C=O)Cc2ccccc2)cc1 (stereo not drawn) (Tos-[Pip]-Phe-aldehyde; configuration not given here) |  | 540 | 5260 | 10 |  | 
